Source: US6335443B1, “Chemical synthesis of exochelins” (Keystone Biomedical, Inc., priority 1998, dated 2002)

What was measured:
[1] = Capacity to chelate iron from ferric ammonium citrate solution (reverse-phase HPLC, 450 nm); type: binding
Experimental: A. Capacity to Chelate Iron. To determine if the synthetic desferri-Exochelin 772SM(R) could chelate iron, as does the native form, the Exochelin was dissolved in 0.1% TFA containing ferric ammonium citrate at a 10-fold molar excess of iron to Exochelin. The solution was then loaded on a Bondapak Phenyl 125 Å 10 μm (3.9×300 mm) HPLC column and the Exochelin was subjected to reverse-phase HPLC (High Pressure Liquid Chromatography) on a Rainin (Woburn, Mass.) HPXL system. The Exochelin was eluted with a 0-100% gradient of a buffer consisting of 0.1% TFA and 50% acetonitrile at a flow rate of 1 ml/min. The ferri-exochelins were monitored at 220-nm and 450-nm absorbance. The mass of ferri-exochelin was assayed by measuring the area under the peak at 450-nm and applying a conversion factor derived from assaying known amounts of ferri-exochelin 772SM(R).
A. Capacity to Chelate Iron. The capacity of synthetic Exochelin 772SM(S) to chelate iron from a solution containing a 10-fold molar excess of ferric iron (ferric ammonium citrate) was assayed as described above.

[2] = tested on: ferri-Exochelin 758SM; assay: Capacity to remove iron from a different Exochelin species (Ferri-Exochelin 758SM); type: binding
Experimental: C. Capacity to Remove Iron from a Different Exochelin Species. To assess the affinity of the synthetic desferri-Exochelin 772SM(R) for iron, its capacity to remove iron from a different Exochelin species, ferri-Exochelin 758SM, was evaluated. The capacity of synthetic and native desferri-Exochelin 772SM(R) to remove iron from ferri-Exochelin 758SM was also evaluated and compared. Either native or synthetic desferri-Exochelin 772SM(R) were independently mixed with ferri-Exochelin 758SM. The amount of iron acquired in 1 hour by the desferri-Exochelins was assayed by subjecting the Exochelin to reverse-phase HPLC on a phenyl column, as described above, and the area under the 450 nm absorbance peak was measured. The amount of iron-Exochelin was then calculated using a conversion factor derived from assaying known amounts of ferri-Exochelin 772SM(R).
C. Capacity to Remove Iron from a Different Exochelin Species. To assess the affinity of the synthetic desferri-Exochelin 772SM(S) for iron, its capacity to remove iron from a different exochelin species, ferri-Exochelin 758SM was evaluated. The capacity of synthetic desferri-Exochelin 772SM(S) and native desferri-Exochelin 772SM(R) to remove iron from ferri-Exochelin 758SM was also evaluated and compared. Either synthetic desferri-Exochelin 772SM(S) or native desferri-Exochelin 772SM(R) was mixed with ferri-Exochelin 758SM. The amount of iron acquired by the desferri-exochelins after 1 hour was assayed by subjecting the molecule to reverse-phase HPLC on a phenyl column, as described above, and the area under the 450 nm absorbance peak was measured. The amount of iron-exochelin was then calculated using a conversion factor derived from assaying known amounts of ferri-Exochelin 772SM(R) and ferri-Exochelin 772SM(S).

[3] = tested on: ferri-Exochelin 758SM; assay: Capacity to remove iron from Ferri-Exochelin 758SM in the same vial (772SM(R) vs 772SM(S)); type: binding; settings: Table 3
Experimental: To further assess the relative affinities of the stereoisomers desferri-Exochelin 772SM(R) and 772SM(S) for iron, their capacity to remove iron from a different exochelin species in the same vial were compared.
In the experiment,15.6 μg of 1.1% iron-saturated synthetic Exochelin 772SM(R) and 17.4 μg of 1.0% iron-saturated synthetic Exochelin 772SM(S) was mixed with 13.5 μg of 100% iron-saturated native Exochelin 758SM.

[4] = biological target: T1, 40% iron-saturated human transferrin (Homo sapiens, UniProt P02787); assay: Capacity to remove iron from 40% iron-saturated human transferrin; type: biochemical; settings: Fe3+:desferri-Exochelin 10:1, PBS pH 7.4
Experimental: (§1) A. 40% Iron-Saturated Human Transferrin. To assess the capacity of the 3 different desferri-Exochelins to remove iron from 40% iron-saturated human transferrin, each of them was incubated for 1, 3, and 24 hours with 40% iron-saturated transferrin such that the ratio of Fe^3+: desferri-Exochelin equaled 10:1. The incubation was carried out in PBS, pH 7.4. Afterwards, the Exochelin and transferrin were separated from each other by centrifugation through a 10,000 dalton cut-off filter. The transferrin (mass 76,000 daltons) was completely excluded by this filter whereas 85% of the Exochelin (mass<1,000) was recovered in the filtrate. To determine the total amount of exochelin recovered, the exochelin in the filtrate was saturated with a 20:1 molar excess of ferric ammonium citrate and subjected to reverse-phase HPLC as described above. To determine the amount of iron-saturated Exochelin in the filtrate at each time point, the filtrate was subjected to reverse-phase HPLC without the addition of iron. The % iron-saturation was calculated as follows: [formula]

[5] = biological target: holo-transferrin (92% iron-saturated human transferrin) (Homo sapiens, UniProt P02787); assay: Capacity to remove iron from holo-transferrin (92% iron-saturated human transferrin); type: biochemical; settings: Fe3+:desferri-Exochelin 10:1
Experimental: as §1
B. Holo-Transferrin (92% Iron-Saturated Human Transferrin). To assess the capacity of the 3 different desferri-Exochelins to remove iron from holo-transferrin (92% iron-saturated human transferring, each of them was incubated for 1, 3, and 24 h with 92% iron-saturated transferrin such that the ratio of Fe^3+: desferri-Exochelin equaled 10:1, as in the aforementioned study with 40% iron-saturated transferrin. The % iron-saturation of the Exochelins was assayed as above.

[6] = biological target: T1, 40% iron-saturated human transferrin; assay: Capacity to remove iron from 40% iron-saturated human transferrin; type: biochemical; settings: Fe3+:desferri-Exochelin 10:1, PBS pH 7.4, listed as Synthetic Desferri-Exochelin 772SM(S)
[7] = 1 h, listed as Synthetic Desferri-Exochelin 772SM(S)
[8] = 3 h, listed as Synthetic Desferri-Exochelin 772SM(S)
[9] = listed as Synthetic Desferri-Exochelin 772SM(S)
[10] = listed as synthetic desferri-exochelin 772SM(S)

Sequence of holo-transferrin (92% iron-saturated human transferrin) (P02787 20-698): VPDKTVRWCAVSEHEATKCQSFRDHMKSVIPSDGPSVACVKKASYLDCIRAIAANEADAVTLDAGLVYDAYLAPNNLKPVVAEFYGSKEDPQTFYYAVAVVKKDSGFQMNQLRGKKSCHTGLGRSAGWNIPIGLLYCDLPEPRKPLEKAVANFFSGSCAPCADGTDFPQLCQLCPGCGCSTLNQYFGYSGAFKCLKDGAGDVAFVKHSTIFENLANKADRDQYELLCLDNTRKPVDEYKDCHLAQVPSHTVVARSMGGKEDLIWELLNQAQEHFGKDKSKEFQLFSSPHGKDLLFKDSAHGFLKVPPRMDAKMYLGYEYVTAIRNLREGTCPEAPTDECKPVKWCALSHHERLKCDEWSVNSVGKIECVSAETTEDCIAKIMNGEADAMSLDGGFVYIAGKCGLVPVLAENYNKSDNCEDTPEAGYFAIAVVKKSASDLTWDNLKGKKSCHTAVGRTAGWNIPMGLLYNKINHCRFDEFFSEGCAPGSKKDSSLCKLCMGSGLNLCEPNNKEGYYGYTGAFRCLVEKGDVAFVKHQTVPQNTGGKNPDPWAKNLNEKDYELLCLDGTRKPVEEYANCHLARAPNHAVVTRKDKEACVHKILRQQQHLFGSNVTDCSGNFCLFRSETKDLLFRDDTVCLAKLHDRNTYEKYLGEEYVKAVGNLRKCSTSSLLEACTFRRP
T1 sequence (P02787 20-698): as above

COC(=O)CCCCCC(=O)N(O)CCCCC(NC(=O)C1COC(c2ccccc2O)=N1)C(=O)OC(C)CC(=O)NC1CCCCN(O)C1=O [Synthetic 772SM(S), Exochelin 772SM(S)]
ferri-exochelin eluted from the HPLC column, % of the Exochelin added ([1]; absence of ferric ammonium citrate, listed as synthetic Exochelin 772SM(S)): 1.03% | capacity to chelate iron (in words) ([1]; ferric iron in solution, listed as synthetic desferri-Exochelin 772SM(S)): rapidly chelates iron in solution | exochelin eluted from the column in the ferri form ([1]; presence of ferric ammonium citrate, 10-fold molar excess of iron, listed as synthetic Exochelin 772SM(S)): fully saturated with iron | % of Calculated Iron-Saturation at Equilibrium 0 hour ([2]; Table 2, 0 hour, assuming comparable affinities for iron): 2.3% | % Iron-Saturation 0 hour ([2]; Table 2, 0 hour, mixed with ferri-Exochelin 758SM): 1.0% | % of Calculated Iron-Saturation at Equilibrium 1 hour ([2]; Table 2, assuming comparable affinities for iron): 89.6% | % of Calculated Iron-Saturation at Equilibrium 1 hour ([2]; Table 2, assuming comparable affinities for iron, listed as synthetic Exochelin 772SM(S)): 89.6% | % Iron-Saturation 1 hour ([2]; Table 2, mixed with ferri-Exochelin 758SM): 39.7% | % Iron-Saturation 1 hour ([2]; Table 2, mixed with ferri-Exochelin 758SM, listed as synthetic Exochelin 772SM(S)): 39.7% | affinity for iron (in words) ([2]; removal of iron from ferri-Exochelin 758SM within 1 h): very high affinity for iron | % Iron-Saturation 0 hour ([3]; 0 hour, 772SM(R), 772SM(S) and 758SM in the same vial): 1.0% | % of Calculated Iron-Saturation at Equilibrium 0 hour ([3]; 0 hour, same vial, assuming comparable affinities): 3.3% | % Iron-Saturation 1 hour ([3]; 772SM(R), 772SM(S) and 758SM in the same vial): 25.9% | % Iron-Saturation 1 hour ([3]; 772SM(R), 772SM(S) and 758SM in the same vial, listed as Exochelin 772SM(S)): 25.9% | % of Calculated Iron-Saturation at Equilibrium 1 hour ([3]; same vial, assuming comparable affinities): 86.6% | % of Calculated Iron-Saturation at Equilibrium 1 hour ([3]; same vial, assuming comparable affinities, listed as Exochelin 772SM(S)): 86.6% | Iron-Saturation 1 h [4, 7]: 14.2% | Iron-Saturation 3 h [4, 8]: 13.8% | Iron-Saturation 24 h [4, 9]: 35.3% | Iron-Saturation 24 h [4, 10]: 35.3% | Iron-Saturation 0 h ([5]; 0 h, listed as Synthetic Desferri-Exochelin 772SM(S)): 1.0% | Iron-Saturation 1 h [5, 7]: 18.1% | Iron-Saturation 3 h [5, 8]: 15.5% | Iron-Saturation 24 h [5, 9]: 47.2% | Iron-Saturation 24 h [5, 10]: 47.2% | Iron-Saturation 0 h [6]: 1.0%
